US8383619B2, “Pharmaceutical compounds” (Astex Therapeutics Limited, priority 2008, dated 2013)
Structures can show the parent of a compound that is named as a salt.

Key:
Whole blood stability = format: in vitro ADME; conditions: 1 μM, 37° C., 120 mins
Text: (§1) The breakdown of a prodrug in vivo could occur in one or more of several different compartments including for example, but not limited to blood/plasma, liver, stomach, target tissue (e.g. tumour). The preferred location for optimum formation of the parent drug will depend on the disposition in vivo of the pro-drug and parent and an understanding of the optimum concentrations of each required in the circulation to maximise exposure to the active moiety in the target tissue. The potential for pro-drug molecules to deliver the active parent drug may be assessed in vitro by measuring the breakdown of a pro-drug in the presence of relevant body fluids. For the purpose of gaining a preliminary understanding of the stability of compounds of the invention to enzymatic hydrolysis in two such bodily compartments, compound turnover has been studied following incubation in whole blood and liver homogenate from mice and humans. The data obtained from these studies provide a preliminary understanding of which of the prodrugs are better able to deliver parent compound (i.e. are more rapidly broken down to parent compound) in these compartments. Further studies could also determine stability in other compartments (e.g. in the target tumours by measuring stability in tumour lysates).
For these studies, human whole blood was collected from 3 male healthy volunteers in lithium heparin tubes. The blood was pooled and stored at room temperature for a maximum of 2 hours prior to initiation of incubations. Mouse blood was collected from 70 male mice, strain: Balb/c into lithium heparin tubes and pooled.
(§2) Each incubation consisted of a volume of 1 mL. Test compound dosing solutions were then spiked into each homogenate at a final compound concentration of 1 μM. Incubations were performed in the atmosphere in a shaking water bath at 37° C.
(§3) An aliquot of incubation samples was removed into an equal volume of ice-cold acetonitrile at various time points. Samples (whole blood/homogenate+acetonitrile) were centrifuged and aliquots of the supernatant were analysed by HPLC-MS/MS.
(§4) The compound X (2,4-dihydroxy-5-isopropyl-phenyl)-[5-(4-methyl-piperazin-1-ylmethyl)-1,3-dihydro-isoindol-2-yl]-methanone) and the compounds of Examples 1 to 24 were incubated in both whole blood and liver homogenate by Quotient Bioresearch (Rushden, UK). The percentage remaining of parent compound following incubation in whole blood/liver homogenate from human and mouse are set out in the table below.

[1] = Liver homogenate stability; format: in vitro ADME; conditions: 1 μM, 37° C., 120 mins
Text: as §1
Mouse livers were obtained from 20 male mice, strain: Balb/c from stock animals. Human liver tissue was obtained from 3 individuals sourced from a UK human tissue bank. The livers were stored frozen. The livers were defrosted and then homogenised to form a homogenate of approximately 30% (w/v) in phosphate buffer, 100 mM, pH 7.4 (referred to as ‘buffer’). Homogenates were kept on ice until use.
as §2, §3, §4

[2] = Tolerability, four consecutive daily doses; format: in vivo, mouse
[3] = Mouse pharmacokinetics, oral gavage; format: in vivo, Balb/c mice; conditions: compared with examples 16 and 11
Experimental: Balb/c mice are dosed with a prodrug by oral gavage. A single administration of one of the 24 examples is given and a dose volume of 10 mL/kg is used for PO doses.
Blood samples are collected in lithium heparin coated tubes at selected time points.
Plasma is isolated by centrifugation and frozen before analysis.
Plasma samples are prepared by liquid-liquid extraction with Acetonitrile containing internal standard. Quantification is by comparison with a standard calibration line constructed with each compound and using a LC-MS/MS method specific to each compound. Animals that had been dosed one of the 24 examples were analysed for prodrug and compound X (2,4-dihydroxy-5-isopropyl-phenyl)-[5-(4-methyl-piperazin-1-ylmethyl)-1,3-dihydro-isoindol-2-yl]-methanone). Pharmacokinetics parameters are calculated using WinNonLin® non compartmental analysis software.
The plasma AUC0.25-2 hrs after PO administration of selected examples are set out in the table below. For examples 16, 17 and 11, plasma AUC0.25-2 hrs was determined following a single dose of 120 μmoles/kg or 240 μmoles/kg.

SMILES	Percentage remaining Human blood (Whole blood stability) [%]	Percentage remaining Mouse blood (Whole blood stability) [%]	Percentage remaining Human Liver [1] [%]	Percentage remaining Mouse Liver [1] [%]	tolerability ([2]; four consecutive daily doses at 240 μmoles/kg)	exposure of the active pharmaceutical agent relative to the starting dose [3]	tolerability ([2]; four consecutive daily doses at 120 μmoles/kg)
CC(C)c1cc(C(=O)N2Cc3ccc(CN4CCN(C)CC4)cc3C2)c(OC(=O)N(C)C)cc1OC(=O)N(C)C [Example 11, dimethyl-carbamic acid 5-dimethylcarbamoyloxy-2-isopropyl-4-[5-(4-methyl-piperazin-1-ylmethyl)-1,3-dihydro-isoindole-2-carbonyl]-phenyl ester]	93	38	31	1	well tolerated		
CC(C)c1cc(C(=O)N2Cc3ccc(CN4CCN(C)CC4)cc3C2)c(O)cc1OC(=O)N(C)C [Example 17, dimethyl-carbamic acid 5-hydroxy-2-isopropyl-4-[5-(4-methyl-piperazin-1-ylmethyl)-1,3-dihydro-isoindole-2-carbonyl]-phenyl ester]	90	24	0	0		optimal exposure of the active pharmaceutical agent relative to the starting dose	well tolerated
CC(C)c1cc(C(=O)N2Cc3ccc(CN4CCN(C)CC4)cc3C2)c(OC(=O)C(C)(C)C)cc1OC(=O)C(C)(C)C [Example 24, 2,2-Dimethyl-propionic acid 5-(2,2-dimethyl-propionyloxy)-2-isopropyl-4-[5-(4-methyl-piperazin-1-ylmethyl)-1,3-dihydro-isoindole-2-carbonyl]-phenyl ester dihydrochloride]	11	0	2	0			
